In US20250171417A1, “HETEROCYCLIC DERIVATIVE, AND COMPOSITION AND PHARMACEUTICAL USE THEREOF” (Xizang Haisco Pharmaceutical Co., Ltd., priority 2021, published 2025):

How the values were obtained:
[1] = Pharmacokinetic test in rats; format: in vivo; conditions: rat, plasma, po, male SD rats; for bioavailability: i.g. 5 mg/kg vs intravenous 2 mg/kg; for AUC(0-t): i.g. 5 mg/kg
Experimental: Test objective: In this experiment, a single dose of each test compound was administered to SD rats intravenously and intragastrically, and the concentrations of the test compounds in plasma of rats were measured to evaluate the pharmacokinetic characteristics of the test compounds in rats.
Experimental animals: male SD rats, 200-250 g, 6-8 weeks old, 6 rats/compound, purchased from Chengdu Ddossy Experimental Animals Co., Ltd.
Experimental method: on the day of the test, 6 SD rats were randomly grouped according to their body weight; the animals were fasted with water available for 12 to 14 hours one day before the administration of a test compound, and were fed 4 hours after the administration.
Sampling: Before and after the administration, 0.1 mL of blood samples were drawn from the orbits of the animals under isoflurane anesthesia, and placed in an EDTAK2 centrifuge tube. Centrifugation was carried out at 5000 rpm at 4° C. for 10 min, and the plasma was collected.
Time points for plasma collection in IV&PO group: 0, 5 min, 15 min, 30 min, 1 h, 2 h, 4 h, 6 h, 8 h, and 24 h.
Before analysis and detection, all samples were stored at −60° C. The samples were analyzed quantitatively by LC-MS/MS.

[2] = test system: Prostate cancer cells 22RV1; assay: Experiment on inhibiting 22RV1 cell proliferation (CellTiter-Glo, 7 days); format: cell-based; conditions: Homo sapiens, 168 h, 22RV1 cells, 7 days incubation, cells with nM printed beside the value, read-out: IC50 values for inhibition of 22RVI cells
Method in brief: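 22RV1 cells at 2000/well in 1% charcoal-stripped-FBS phenol red-free medium, treated next day with compound for 7 days at 37 °C, 5% CO2. Viability by CellTiter-Glo luminescence; inhibition relative to DMSO vehicle, IC50 from dose-response fit.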

[3] = target: T1, AR splice variant 7 (AR-V7) (Homo sapiens, UniProt P10275); assay: Degradation experiment on AR splice variant 7 (AR-V7) in 22RV1 cells; format: cell-based; conditions: 24 h
T1 construct: host or cells: 22RV1 prostate cancer cells
T1 sequence (P10275 1-644 isoform P10275-3): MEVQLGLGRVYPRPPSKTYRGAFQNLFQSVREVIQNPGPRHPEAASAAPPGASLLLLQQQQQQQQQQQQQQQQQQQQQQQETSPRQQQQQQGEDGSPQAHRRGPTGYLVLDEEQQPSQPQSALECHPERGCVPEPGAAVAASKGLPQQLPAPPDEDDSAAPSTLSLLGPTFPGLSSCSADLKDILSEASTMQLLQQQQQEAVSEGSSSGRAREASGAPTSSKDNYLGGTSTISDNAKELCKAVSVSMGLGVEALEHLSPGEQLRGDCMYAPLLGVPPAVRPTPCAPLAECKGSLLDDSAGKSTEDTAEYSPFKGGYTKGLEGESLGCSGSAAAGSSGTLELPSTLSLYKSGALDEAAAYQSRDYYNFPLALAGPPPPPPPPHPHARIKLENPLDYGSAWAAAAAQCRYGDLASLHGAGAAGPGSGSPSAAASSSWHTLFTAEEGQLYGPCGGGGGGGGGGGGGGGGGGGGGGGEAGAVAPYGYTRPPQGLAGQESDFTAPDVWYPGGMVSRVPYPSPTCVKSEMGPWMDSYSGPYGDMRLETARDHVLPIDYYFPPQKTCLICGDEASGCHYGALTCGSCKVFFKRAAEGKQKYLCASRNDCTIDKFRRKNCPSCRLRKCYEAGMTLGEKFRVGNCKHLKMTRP
Experimental: Prostate cancer cells 22RV1 were purchased from ATCC, the cell medium was 1640+10% FBS, and the cells were cultured in an incubator at 37° C. under 5% CO2. On day 1, the cells in an exponential phase were collected. With a 1% css-FBS phenol red-free medium, the cell suspension was adjusted to a corresponding concentration and plated into a 6-well plate at 1 mL/well and 300000 cells/well. The next day, a 1% css-FBS phenol-free medium containing the compound to be tested was added, a 1% css-FBS phenol-free medium containing 0.2% DMSO was added to one well as DMSO vehicle control, and the 6-well plate was cultured in an incubator at 37° C. under 5% CO2. After 24 h, the cells were digested with pancreatin and collected into a 1.5 mL centrifuge tube. 15 μL of RIPA lysate (containing 1× protease inhibitor cocktail) was added to each well, and the cells were lysed on ice for 15 min and then centrifuged at 12000 g at 4° C.′ for 10 min. The supernatant protein samples were collected, and protein quantification was performed by a BCA method. AR-V7 was detected using fully automatic protein expression quantitative analysis, which involved diluting the protein to be tested to 2 mg/mL, 4 μL of the diluted protein samples were added to 1 μL of 5× Master Mix (provided in the kit), and the prepared samples were denatured at 95° C. for 5 min and placed on ice for use. The primary antibodies. AR V7 (CST, 19672S) and β-actin (CST, 3700), were diluted with Antibody Diluent II (provided in the kit) at a dilution ratio of 1:10 and 1:500, respectively. The secondary antibody was a mixed goat anti-mouse and goat anti-rabbit secondary antibody in a ratio of 1:1, and the color development solution was a mixed solution of Lumino-S and Peroxide in a ratio of 1:1. The prepared reagents were successively added to an assay plate according to instructions of the kit and detected on an instrument. Western blot band processing was performed using “Compass for SW”, a fully automatic protein expression quantitative analysis software, in which western blot bands were automatically simulated based on signal values. The degradation rate of AR-V7 (4) relative to vehicle control at different compound concentrations was calculated according to formula (4), wherein AR-V7compound was the relative peak area of AR-V7 in the treated group, and AR-V7solvent was the relative peak area of AR-V7 in the vehicle control group.
DC50 calculation: the compound concentration DC50 values at which the degradation rate of AR-V7 was 50% were calculated using Graphpad software and analyzed using log (inhibitor) vs. response-Variable slope (four parameters) function according to formula (4).

[4] = test system: AR splice variants (AR-Vs); assay: Degradation experiment on AR splice variants (AR-Vs) in 22RV1 cells; format: cell-based; conditions: 2 μM, 24 h
Experimental: (§1) Prostate cancer cells 22RV1 were purchased from ATCC, the cell medium was 1640+10% FBS, and the cells were cultured in an incubator at 37° C. under 5% CO2. On day 1, the cells in an exponential phase were collected. With a 1% css-FBS phenol red-free medium, the cell suspension was adjusted to a corresponding concentration and plated into a 6-well plate at 1 mL/well and 100000 cells/well. The next day, a 1% css-FBS phenol-free medium containing the compound to be tested was added, a 1% css-FBS phenol-free medium containing 0.2% DMSO was added to one well as DMSO vehicle control, and the 6-well plate was cultured in an incubator at 37° C. under 5% CO2. After 24 h, the cells were digested with pancreatin and collected into a 1.5 mL centrifuge tube. […] The supernatant protein samples were collected, and protein quantification was performed by a BCA method. AR-FL and AR-Vs were detected using fully automatic protein expression quantitative analysis, which involved diluting the protein to be tested to 1 mg/mL, 4 μL of the diluted protein samples were added to 1 μL of […] (provided in the kit), and the prepared samples were denatured at 95° C. for 5 min and placed on ice for use. […] The prepared reagents were successively added to an assay plate according to instructions of the kit and detected on an instrument. […]

Full-length AR (AR-FL) = assay: Degradation experiment on full-length AR (AR-FL) in 22RV1 cells; format: cell-based; conditions: 2 μM, 24 h
Experimental: as §1

Compound	bioavailability [1] [%]	AUC(0-t) [1] [ng·h/mL]	IC50 [2] [nM]	DC50 [3] [nM]	degradation effect on AR-Vs [4]	degradation effect on AR-FL (Full-length AR (AR-FL))
CC(C)(C(=O)Nc1cnc(C#N)c(C(F)(F)F)c1)n1cc(C#CC2CN(c3ccc4c(c3)C(=O)N(C3CCC(=O)NC3=O)C4=O)C2)cn1 (stereo not shown) [Compound 4, N-(6-cyano-5-(trifluoromethyl)pyridin-3-yl)-2-(4-((1-(2-(2,6-dioxopiperidin-3-yl)-1,3-dioxoisoindolin-5-yl)azetidin-3-yl)ethynyl)-1H-pyrazol-1-yl)-2-methylpropanamide]	51.2 ± 9.7	29400 ± 5590	–	–	significant degradation effect	significant degradation effect
CC(C)(C(=O)Nc1ccc(C#N)c(C2CC2)c1)n1cc(C#CC2CN(c3ccc4c(c3)C(=O)N(C3CCC(=O)NC3=O)C4=O)C2)cn1 (stereo not shown) [Compound 29, N-(4-cyano-3-cyclopropylphenyl)-2-(4-((1-(2-(2,6-dioxopiperidin-3-yl)-1,3-dioxoisoindolin-5-yl)azetidin-3-yl)ethynyl)-1H-pyrazol-1-yl)-2-methylpropanamide]	–	48700 ± 7060	< 100	< 500	–	–
CC(C)(C(=O)Nc1ccc(C(F)(F)F)cc1Cl)n1cc(C#CC2CN(c3ccc4c(c3)C(=O)N(C3CCC(=O)NC3=O)C4=O)C2)cn1 (stereo not shown) [Compound 11, N-(2-chloro-4-(trifluoromethyl)phenyl)-2-(4-((1-(2-(2,6-dioxopiperidin-3-yl)-1,3-dioxoisoindolin-5-yl)azetidin-3-yl)ethynyl)-1H-pyrazol-1-yl)-2-methylpropanamide]	90.9 ± 2.4	16000 ± 431	< 50	< 500	–	–
CC(C)(C(=O)Nc1ccc(C#N)c2ccccc12)n1cc(C#CC2CN(c3ccc4c(c3)C(=O)N(C3CCC(=O)NC3=O)C4=O)C2)cn1 (stereo not shown) [Compound 21, N-(4-cyanonaphthalen-1-yl)-2-(4-((1-(2-(2,6-dioxopiperidin-3-yl)-1,3-dioxoisoindolin-5-yl)azetidin-3-yl)ethynyl)-1H-pyrazol-1-yl)-2-methylpropanamide]	69.1 ± 12	15200 ± 2610	< 50	< 500	–	–
CC(C)(C(=O)Nc1ccc(C(F)(F)F)cc1Cl)n1cc(C#CC2CN(c3cc4c(cc3F)C(=O)N(C3CCC(=O)NC3=O)C4=O)C2)cn1 (stereo not shown) [Compound 15]	73.2 ± 10	10200 ± 1460	< 100	< 500	–	–

More lines, main results first:

bioavailability [1] [%]	AUC(0-t) [1] [ng·h/mL]	IC50 [2] [nM]	DC50 [3] [nM]	Compound	degradation effect on AR-Vs [4]	degradation effect on AR-FL (Full-length AR (AR-FL))
98.1 ± 6.6	22500 ± 1510	< 50	< 500	CC(C)(C(=O)Nc1ccc(C(F)(F)F)cc1C1CC1)n1cc(C#CC2CN(c3ccc4c(c3)C(=O)N(C3CCC(=O)NC3=O)C4=O)C2)cn1 (stereo not shown) [Compound 30, N-(2-cyclopropyl-4-(trifluoromethyl)phenyl)-2-(4-((1-(2-(2,6-dioxopiperidin-3-yl)-1,3-dioxoisoindolin-5-yl)azetidin-3-yl)ethynyl)-1H-pyrazol-1-yl)-2-methylpropanamide]	–	–
52.4 ± 3.1	14000 ± 816	< 50	< 500	CC#Cc1cc(C(F)(F)F)ccc1NC(=O)C(C)(C)n1cc(C#CC2CN(c3ccc4c(c3)C(=O)N(C3CCC(=O)NC3=O)C4=O)C2)cn1 (stereo not shown) [Compound 118, 2-(4-((1-(2-(2,6-dioxopiperidin-3-yl)-1,3-dioxoisoindolin-5-yl)azetidin-3-yl)ethynyl)-1H-pyrazol-1-yl)-2-methyl-N-(2-(prop-1-yn-1-yl)-4-(trifluoromethyl)phenyl) propanamide]	–	–
37.9 ± 2.2	12000 ± 711	< 50	< 500	CC(C)(C(=O)Nc1ccc(C(F)(F)F)cc1-c1nccs1)n1cc(C#CC2CN(c3ccc4c(c3)C(=O)N(C3CCC(=O)NC3=O)C4=O)C2)cn1 (stereo not shown) [Compound 155, 2-(4-((1-(2-(2,6-dioxopiperidin-3-yl)-1,3-dioxoisoindolin-5-yl)azetidin-3-yl)ethynyl)-1H-pyrazol-1-yl)-2-methyl-N-(2-(thiazol-2-yl)-4-(trifluoromethyl)phenyl) propanamide]	–	–
